Counter-ions that a name gives are not always drawn.
Key:
Details in all cases: 4 days
U937 [1] = assay: area under dose-response curve (cell viability) (AUC (arbitrary, % viability x log concentration)); higher = less sensitive (more viable)
How it was run: (§1)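 Fourteen leukemia cell lines were plated on extracellular-matrix-coated 384-well plates. Drugs were added robotically the next day at eight concentrations spanning 4–5 logs within 10^–12–10^–4 M, tailored per drug, in duplicate. Viability was read with CellTiter-Glo after 4 days. The value is the area under a four-parameter sigmoid fitted to the duplicate-averaged dose-response.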

MOLM/13 [2] = assay: as above
How it was run: as §1

MV4.11 [3] = assay: as above
How it was run: as §1

KASUMI1 [4] = assay: as above
How it was run: as §1

HL60 [5] = assay: as above
How it was run: as §1

KG1 [6] = assay: as above
How it was run: as §1

MOLM/16 = assay: IC50 (cell viability) (log10 M)
How it was run: (§2)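 The IC50 entries come from fitted dose-response curves. Each value is the concentration in log10 M where a fitted four-parameter curve reaches 50% viability, and the highest tested concentration is entered when that level is not reached. Fourteen leukemia cell lines on extracellular-matrix-coated 384-well plates received drugs in duplicate at eight concentrations within 10^–12–10^–4 M, and viability was read with CellTiter-Glo after 4 days.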

EOL-1 = assay: IC50 (cell viability) (log10 M)
How it was run: as §2

PL-21 = assay: IC50 (cell viability) (log10 M)
How it was run: as §2

U937 [7] = assay: IC50 (cell viability) (log10 M)
How it was run: as §2

MOLM/13 [8] = assay: IC50 (cell viability) (log10 M)
How it was run: as §2

SKM1 = assay: IC50 (cell viability) (log10 M)
How it was run: as §2

MV4.11 [9] = assay: IC50 (cell viability) (log10 M)
How it was run: as §2

OCI-AML3 = assay: IC50 (cell viability) (log10 M)
How it was run: as §2

KASUMI1 [10] = assay: IC50 (cell viability) (log10 M)
How it was run: as §2

NB4 = assay: IC50 (cell viability) (log10 M)
How it was run: as §2

HL60 [11] = assay: IC50 (cell viability) (log10 M)
How it was run: as §2

OCI-AML2 = assay: IC50 (cell viability) (log10 M)
How it was run: as §2

THP-1 = assay: IC50 (cell viability) (log10 M)
How it was run: as §2

KG1 [12] = assay: IC50 (cell viability) (log10 M)
How it was run: as §2

IC50 (log10 M) (MOLM/16)	IC50 (log10 M) (U937 [7])	IC50 (log10 M) (MOLM/13 [8])	IC50 (log10 M) (SKM1)	IC50 (log10 M) (MV4.11 [9])	IC50 (log10 M) (OCI-AML3)	IC50 (log10 M) (HL60 [11])	IC50 (log10 M) (OCI-AML2)	IC50 (log10 M) (THP-1)	SMILES	area under dose-response curve (U937 [1])	area under dose-response curve (MOLM/13 [2])	area under dose-response curve (MV4.11 [3])	area under dose-response curve (KASUMI1 [4])	area under dose-response curve (HL60 [5])	area under dose-response curve (KG1 [6])	IC50 (log10 M) (EOL-1)	IC50 (log10 M) (PL-21)	IC50 (log10 M) (KASUMI1 [10])	IC50 (log10 M) (NB4)	IC50 (log10 M) (KG1 [12])
-6.53	-6.45	-5.82	-5.8	-5.78	-5.84	-5.74	-5.74	-5.85	Nc1cc(C(F)(F)F)c(-c2cc(N3CCOCC3)nc(N3CCOCC3)n2)cn1 [BKM-120]	510	576	599	602	613	566	-6.36	-5.86	-5.95	-5.9	-5.83
-7.03	-6.6	-6.82	-6.84	-6.86	-6.64	-6.6	-6.78	-6.13	Nc1ccccc1NC(=O)c1ccc(CNC(=O)OCc2cccnc2)cc1 [MS-275]	449	459	436	466	490	592	-7.34	-6.61	-6.78	-6.85	-6.27
-5.69	-5.02	-5.14	-5.01	-5.42	> -5	> -5	> -5	> -5	C#Cc1cccc(Nc2ncnc3cc(OCCOC)c(OCCOC)cc23)c1 [Erlotinib HCl]	642	660	628	683	696	627	-5.67	> -5	> -5	> -5	-5.31
-5.46	-5.74	-5.23	-5.13	-5.34	-5.41	-5.2	-5.56	> -5	Nc1nc(F)nc2c1ncn2[C@@H]1O[C@H](CO)[C@@H](O)[C@@H]1O [Fludarabine]	592	646	594	655	643	714	-5.77	-5.62	-5.19	> -5	-5.01
> -6	-6.37	-9.03	> -6	< -9.34	-6.01	-6.01	-6	-6.01	CC(C)(C)c1cc(NC(=O)Nc2ccc(-c3cn4c(n3)sc3cc(OCCN5CCOCC5)ccc34)cc2)no1 [AC-220]	530	200	154	408	550	650	< -9.34		-6.48	> -6	> -6
-6.21	-7.93	-5.62	-5.76	-5.66	-5.42	-5.37	-5.45	-5.31	NC1(c2ccc(-c3nc4ccn5c(=O)[nH]nc5c4cc3-c3ccccc3)cc2)CCC1 [MK2206]	374	510	515	449	611	649	-6.28	-6.09	-5.83	-5.23	
> -5	> -5	-5.77	< -8.34	-6.67	< -8.34	< -8.34	< -8.34	> -5	CC(=O)Nc1cccc(-n2c(=O)n(C3CC3)c(=O)c3c(Nc4ccc(I)cc4F)n(C)c(=O)c(C)c32)c1	578	571	468	371	287	431		-7.81	-7.17	-7.5	-7.87
	-6.26	-5.8	-6.37	-6.15	-6	-6.46	-5.68	-5.71	CS(=O)(=O)N1CCN(Cc2cc3nc(-c4cccc5[nH]ncc45)nc(N4CCOCC4)c3s2)CC1 [GDC-0941]	472	560	495	402	465	591	-6.95	-6.77	-7.01	-5.49	-5.35
-6.99	-6.99	-6.97	-6.97	-7.18	-7	-6.43		-6.33	CC(C)C[C@@H](C=O)NC(=O)[C@H](CC(C)C)NC(=O)[C@H](CC(C)C)NC(=O)OCc1ccccc1 [MG132]	464	534	402	484	487	543	-7.15	-6.3	-6.3	-7.22	-6.61
									O=NN(CCCl)C(=O)NC1CCCCC1 [Lomustine]	659	657	622	711	719	733					
> -5	> -5	-5.98	> -5	-5.91	> -5	> -5	> -5	> -5	COc1cc2nccc(Oc3ccc(NC(=O)NC4CC4)c(Cl)c3)c2cc1C(N)=O [E7080]	675	531	558	515	727	334	-7.74	> -5	-5.24	> -5	
-6.42	-7.62	-7.76	-7.22	-8.2	-6.58	-5.78		-5.97	COc1cc([C@@H]2c3cc4c(cc3[C@@H](O[C@@H]3O[C@@H]5CO[C@@H](C)O[C@H]5[C@H](O)[C@H]3O)[C@H]3COC(=O)[C@H]23)OCO4)cc(OC)c1O [Etoposide]	350	328	283	470	490	568	-8.33	-5.67	-5.78	-7.71	-5.49

Source: the supplement of paper PMC5752671
